US7695930B2, “Method for the detection, identification and/or quantification of microoganisms with peptidase activity using phenoxazinone derivatives as enzyme substrates” (Biomerieux, priority 2003, dated 2010)

Legend:
Assay in all cases: Leucine-peptidase detection on agar medium (Example 11); for color of the colony: key: B corresponds to fluorescent blue; R corresponds to pink
Assay type in all cases: cell-based
Enterococcus faecalis = test system: Enterococcus faecalis; for color of the colony: key: B corresponds to fluorescent blue; R corresponds to pink
Description: (§1) The detection medium was prepared by mixing 1.4 g of biogelytone (bioMérieux), 0.84 g of meat extract (bioMérieux), 2.24 g of NaCl (Merck), 280 μl of a solution of IPTG (isopropylthio-β-D-galactopyranoside, BIOSYNTH) in water (concentration 10 g/l) and 4.2 g of European agar (bioMérieux).
(§2) The substrate of the invention obtained in Example 2, in which the amino acid is leucine (leucine-9-aminobenzo[a]phenoxazin-5-one or Leu-ABP), or else a substrate of the prior art, which is leucine-aminomethylcoumarin (Leu-AMC, BACHEM), was then added in the following way: 280 ml of osmosed water were added to the medium, and the mixture was melted in a waterbath at 100° C. The mixture was autoclaved for 15 min at 121° C. and cooled to 50° C. in a waterbath.
(§3) The medium was then poured into Petri dishes.
(§4) The coloration of these colonies, the diffusion, and also the intensity of this coloration were noted.
(§5) The results were expressed as intensity of coloration using an arbitrary scale ranging from 0 to 4 as a basis and also as diffusion also using an arbitrary scale ranging from 0 to 4 as a basis.

Citrobacter freundii = test system: Citrobacter freundii; for color of the colony: key: B corresponds to fluorescent blue; R corresponds to pink
Description: as §1, §2, §3, §4, §5

Escherichia coli = test system: Escherichia coli; for color of the colony: key: B corresponds to fluorescent blue; R corresponds to pink
Description: as §1, §2, §3, §4, §5

Enterobacter cloaccae = test system: Enterobacter cloaccae; for color of the colony: key: B corresponds to fluorescent blue; R corresponds to pink
Description: as §1, §2, §3, §4, §5

Staphylococcus aureus = test system: Staphylococcus aureus; for color of the colony: key: B corresponds to fluorescent blue; R corresponds to pink
Description: as §1, §2, §3, §4, §5

Serratia marcescens = test system: Serratia marcescens; for color of the colony: key: B corresponds to fluorescent blue; R corresponds to pink
Description: as §1, §2, §3, §4, §5

With “leucine-9-aminobenzo[a]phenoxazin-5-one [Leu-ABP]” the “color of the colony” value (Enterococcus faecalis; 24 h, 25 mg/l) was “R”, the growth diameter (Enterococcus faecalis; 24 h, 25 mg/l) was 0.3 mm and the “intensity of coloration, scale 0 to 4” value (Enterococcus faecalis; 24 h, 25 mg/l) was 0.0. The “color of the colony” value (Enterococcus faecalis; 24 h, 50 mg/l) was “R”, the growth diameter (Enterococcus faecalis; 24 h, 50 mg/l) was 0.3 mm and the “intensity of coloration, scale 0 to 4” value (Enterococcus faecalis; 24 h, 50 mg/l) was 0.0. It also gave a growth diameter (Enterococcus faecalis; 24 h, 100 mg/l) of 0.3 mm, a growth diameter (Enterococcus faecalis; 24 h, 200 mg/l) of 0.3 mm and a growth diameter (Enterococcus faecalis; 24 h, 400 mg/l) of 0.3 mm. The “color of the colony” value (Enterococcus faecalis; 48 h, 25 mg/l) was “R”, the growth diameter (Enterococcus faecalis; 48 h, 25 mg/l) was 0.3 mm and the “intensity of coloration, scale 0 to 4” value (Enterococcus faecalis; 48 h, 25 mg/l) was 0.0. For the same substance, the “color of the colony” value (Enterococcus faecalis; 48 h, 50 mg/l) was “R”, the growth diameter (Enterococcus faecalis; 48 h, 50 mg/l) was 0.3 mm and the “intensity of coloration, scale 0 to 4” value (Enterococcus faecalis; 48 h, 50 mg/l) was 0.0. For the same substance, the “color of the colony” value (Enterococcus faecalis; 48 h, 100 mg/l) was “R”, the growth diameter (Enterococcus faecalis; 48 h, 100 mg/l) was 0.3 mm and the “intensity of coloration, scale 0 to 4” value (Enterococcus faecalis; 48 h, 100 mg/l) was 0.0. The growth diameter (Enterococcus faecalis; 48 h, 200 mg/l) was 0.3 mm, the “color of the colony” value (Enterococcus faecalis; 48 h, 400 mg/l) was “R” and the growth diameter (Enterococcus faecalis; 48 h, 400 mg/l) was 0.3 mm. The “intensity of coloration, scale 0 to 4” value (Enterococcus faecalis; 48 h, 400 mg/l) was 0.5, the “color of the colony” value (Citrobacter freundii; 24 h, 25 mg/l) was “R” and the growth diameter (Citrobacter freundii; 24 h, 25 mg/l) was 0.7 mm. The “intensity of coloration, scale 0 to 4” value (Citrobacter freundii; 24 h, 25 mg/l) was 1.5, the “color of the colony” value (Citrobacter freundii; 24 h, 50 mg/l) was “R” and the growth diameter (Citrobacter freundii; 24 h, 50 mg/l) was 0.7 mm. For the same substance, the “intensity of coloration, scale 0 to 4” value (Citrobacter freundii; 24 h, 50 mg/l) was 1.5, the “color of the colony” value (Citrobacter freundii; 24 h, 100 mg/l) was “R” and the growth diameter (Citrobacter freundii; 24 h, 100 mg/l) was 0.7 mm. For the same substance, the “intensity of coloration, scale 0 to 4” value (Citrobacter freundii; 24 h, 100 mg/l) was 0.75, the “color of the colony” value (Citrobacter freundii; 24 h, 200 mg/l) was “R” and the growth diameter (Citrobacter freundii; 24 h, 200 mg/l) was 0.8 mm. For the same substance, the “intensity of coloration, scale 0 to 4” value (Citrobacter freundii; 24 h, 200 mg/l) was 1, the “color of the colony” value (Citrobacter freundii; 24 h, 400 mg/l) was “R” and the growth diameter (Citrobacter freundii; 24 h, 400 mg/l) was 0.7 mm. The “intensity of coloration, scale 0 to 4” value (Citrobacter freundii; 24 h, 400 mg/l) was 2, the “color of the colony” value (Citrobacter freundii; 48 h, 25 mg/l) was “R” and the growth diameter (Citrobacter freundii; 48 h, 25 mg/l) was 0.7 mm. The “intensity of coloration, scale 0 to 4” value (Citrobacter freundii; 48 h, 25 mg/l) was 2.5, the “color of the colony” value (Citrobacter freundii; 48 h, 50 mg/l) was “R” and the growth diameter (Citrobacter freundii; 48 h, 50 mg/l) was 0.7 mm. For the same substance, the “intensity of coloration, scale 0 to 4” value (Citrobacter freundii; 48 h, 50 mg/l) was 2.5, the “color of the colony” value (Citrobacter freundii; 48 h, 100 mg/l) was “R” and the growth diameter (Citrobacter freundii; 48 h, 100 mg/l) was 0.7 mm. For the same substance, the “intensity of coloration, scale 0 to 4” value (Citrobacter freundii; 48 h, 100 mg/l) was 1.5, the “color of the colony” value (Citrobacter freundii; 48 h, 200 mg/l) was “R” and the growth diameter (Citrobacter freundii; 48 h, 200 mg/l) was 0.8 mm. For the same substance, the “intensity of coloration, scale 0 to 4” value (Citrobacter freundii; 48 h, 200 mg/l) was 2, the “color of the colony” value (Citrobacter freundii; 48 h, 400 mg/l) was “R” and the growth diameter (Citrobacter freundii; 48 h, 400 mg/l) was 0.7 mm. The “intensity of coloration, scale 0 to 4” value (Citrobacter freundii; 48 h, 400 mg/l) was 2, the “color of the colony” value (Escherichia coli; 24 h, 25 mg/l) was “R” and the growth diameter (Escherichia coli; 24 h, 25 mg/l) was 1.8 mm. For the same substance, the “intensity of coloration, scale 0 to 4” value (Escherichia coli; 24 h, 25 mg/l) was 0.0, the “color of the colony” value (Escherichia coli; 24 h, 50 mg/l) was “R” and the growth diameter (Escherichia coli; 24 h, 50 mg/l) was 1.7 mm. For the same substance, the “intensity of coloration, scale 0 to 4” value (Escherichia coli; 24 h, 50 mg/l) was 0.5, the “color of the colony” value (Escherichia coli; 24 h, 100 mg/l) was “R” and the growth diameter (Escherichia coli; 24 h, 100 mg/l) was 1.8 mm. The “intensity of coloration, scale 0 to 4” value (Escherichia coli; 24 h, 100 mg/l) was 0.0, the growth diameter (Escherichia coli; 24 h, 200 mg/l) was 1.7 mm and the “color of the colony” value (Escherichia coli; 24 h, 400 mg/l) was “R”. The growth diameter (Escherichia coli; 24 h, 400 mg/l) was 1.8 mm, the “intensity of coloration, scale 0 to 4” value (Escherichia coli; 24 h, 400 mg/l) was 0.75 and the “color of the colony” value (Escherichia coli; 48 h, 25 mg/l) was “R”. The growth diameter (Escherichia coli; 48 h, 25 mg/l) was 1.8 mm, the “intensity of coloration, scale 0 to 4” value (Escherichia coli; 48 h, 25 mg/l) was 0.25 and the “color of the colony” value (Escherichia coli; 48 h, 50 mg/l) was “R”. The growth diameter (Escherichia coli; 48 h, 50 mg/l) was 1.8 mm, the “intensity of coloration, scale 0 to 4” value (Escherichia coli; 48 h, 50 mg/l) was 0.5 and the “color of the colony” value (Escherichia coli; 48 h, 100 mg/l) was “R”. The growth diameter (Escherichia coli; 48 h, 100 mg/l) was 1.8 mm, the growth diameter (Escherichia coli; 48 h, 200 mg/l) was 1.7 mm and the growth diameter (Escherichia coli; 48 h, 400 mg/l) was 1.8 mm. The “color of the colony” value (Enterobacter cloaccae; 24 h, 25 mg/l) was “R”, the growth diameter (Enterobacter cloaccae; 24 h, 25 mg/l) was 0.7 mm and the “intensity of coloration, scale 0 to 4” value (Enterobacter cloaccae; 24 h, 25 mg/l) was 1.5. The “color of the colony” value (Enterobacter cloaccae; 24 h, 50 mg/l) was “R”, the growth diameter (Enterobacter cloaccae; 24 h, 50 mg/l) was 0.5 mm and the “intensity of coloration, scale 0 to 4” value (Enterobacter cloaccae; 24 h, 50 mg/l) was 2.5. The “color of the colony” value (Enterobacter cloaccae; 24 h, 100 mg/l) was “R”, the growth diameter (Enterobacter cloaccae; 24 h, 100 mg/l) was 1 mm and the “intensity of coloration, scale 0 to 4” value (Enterobacter cloaccae; 24 h, 100 mg/l) was 3. The “color of the colony” value (Enterobacter cloaccae; 24 h, 200 mg/l) was “R”, the growth diameter (Enterobacter cloaccae; 24 h, 200 mg/l) was 1.5 mm and the “intensity of coloration, scale 0 to 4” value (Enterobacter cloaccae; 24 h, 200 mg/l) was 3. For the same substance, the “color of the colony” value (Enterobacter cloaccae; 24 h, 400 mg/l) was “R”, the growth diameter (Enterobacter cloaccae; 24 h, 400 mg/l) was 1.5 mm and the “intensity of coloration, scale 0 to 4” value (Enterobacter cloaccae; 24 h, 400 mg/l) was 3. The “color of the colony” value (Enterobacter cloaccae; 48 h, 25 mg/l) was “R”, the growth diameter (Enterobacter cloaccae; 48 h, 25 mg/l) was 0.7 mm and the “intensity of coloration, scale 0 to 4” value (Enterobacter cloaccae; 48 h, 25 mg/l) was 2.5. The “color of the colony” value (Enterobacter cloaccae; 48 h, 50 mg/l) was “R”, the growth diameter (Enterobacter cloaccae; 48 h, 50 mg/l) was 0.5 mm and the “intensity of coloration, scale 0 to 4” value (Enterobacter cloaccae; 48 h, 50 mg/l) was 3. For the same substance, the “color of the colony” value (Enterobacter cloaccae; 48 h, 100 mg/l) was “R”, the growth diameter (Enterobacter cloaccae; 48 h, 100 mg/l) was 1.3 mm and the “intensity of coloration, scale 0 to 4” value (Enterobacter cloaccae; 48 h, 100 mg/l) was 3. The “color of the colony” value (Enterobacter cloaccae; 48 h, 200 mg/l) was “R”, the growth diameter (Enterobacter cloaccae; 48 h, 200 mg/l) was 1.5 mm and the “intensity of coloration, scale 0 to 4” value (Enterobacter cloaccae; 48 h, 200 mg/l) was 3. The “color of the colony” value (Enterobacter cloaccae; 48 h, 400 mg/l) was “R”, the growth diameter (Enterobacter cloaccae; 48 h, 400 mg/l) was 1.7 mm and the “intensity of coloration, scale 0 to 4” value (Enterobacter cloaccae; 48 h, 400 mg/l) was 3. The growth diameter (Staphylococcus aureus; 24 h, 25 mg/l) was 0.3 mm, the growth diameter (Staphylococcus aureus; 24 h, 50 mg/l) was 0.2 mm and the “color of the colony” value (Staphylococcus aureus; 48 h, 25 mg/l) was “R”. The growth diameter (Staphylococcus aureus; 48 h, 25 mg/l) was 0.7 mm, the “intensity of coloration, scale 0 to 4” value (Staphylococcus aureus; 48 h, 25 mg/l) was 0.25 and the growth diameter (Staphylococcus aureus; 48 h, 50 mg/l) was 0.2 mm. The “color of the colony” value (Serratia marcescens; 24 h, 25 mg/l) was “R”, the growth diameter (Serratia marcescens; 24 h, 25 mg/l) was 0.5 mm and the “intensity of coloration, scale 0 to 4” value (Serratia marcescens; 24 h, 25 mg/l) was 0.5. For the same substance, the “color of the colony” value (Serratia marcescens; 24 h, 50 mg/l) was “R”, the growth diameter (Serratia marcescens; 24 h, 50 mg/l) was 0.4 mm and the “intensity of coloration, scale 0 to 4” value (Serratia marcescens; 24 h, 50 mg/l) was 1. For the same substance, the “color of the colony” value (Serratia marcescens; 24 h, 100 mg/l) was “R”, the growth diameter (Serratia marcescens; 24 h, 100 mg/l) was 0.4 mm and the “intensity of coloration, scale 0 to 4” value (Serratia marcescens; 24 h, 100 mg/l) was 0.25. For the same substance, the growth diameter (Serratia marcescens; 24 h, 200 mg/l) was 0.4 mm, the growth diameter (Serratia marcescens; 24 h, 400 mg/l) was 0.4 mm and the “color of the colony” value (Serratia marcescens; 48 h, 25 mg/l) was “R”. The growth diameter (Serratia marcescens; 48 h, 25 mg/l) was 0.7 mm, the “intensity of coloration, scale 0 to 4” value (Serratia marcescens; 48 h, 25 mg/l) was 2.5 and the “color of the colony” value (Serratia marcescens; 48 h, 50 mg/l) was “R”. The growth diameter (Serratia marcescens; 48 h, 50 mg/l) was 0.5 mm, the “intensity of coloration, scale 0 to 4” value (Serratia marcescens; 48 h, 50 mg/l) was 3 and the “color of the colony” value (Serratia marcescens; 48 h, 100 mg/l) was “R”. The growth diameter (Serratia marcescens; 48 h, 100 mg/l) was 0.5 mm, the “intensity of coloration, scale 0 to 4” value (Serratia marcescens; 48 h, 100 mg/l) was 1.5 and the “color of the colony” value (Serratia marcescens; 48 h, 200 mg/l) was “R”. The growth diameter (Serratia marcescens; 48 h, 200 mg/l) was 0.5 mm, the “intensity of coloration, scale 0 to 4” value (Serratia marcescens; 48 h, 200 mg/l) was 1 and the “color of the colony” value (Serratia marcescens; 48 h, 400 mg/l) was “R”. The growth diameter (Serratia marcescens; 48 h, 400 mg/l) was 0.5 mm and the “intensity of coloration, scale 0 to 4” value (Serratia marcescens; 48 h, 400 mg/l) was 0.5.
